{"source": "patent US6833372B2", "about": "“Non-peptide GnRH agents, Pharmaceutical compositions, and methods for their use” (Pfizer, Inc., priority 2002, dated 2004)", "key": {"[1]": {"assay": "In vitro metabolism: disappearance of parent compound in human liver microsomes", "type": "in vitro ADME", "details": "5 uM compound, 0.5 mg/ml protein, 2 mM NADPH, 30 minutes 37° C.", "summary_of_the_method": "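Microsomes from human, rat (male, female), dog and monkey liver incubated with 5 uM compound, 0.5 mg/ml protein and 2 mM NADPH in 50 mM K phosphate, pH 7.4, for 30 min at 37° C. Reaction stopped with acetonitrile; parent compound remaining measured by LC-MS.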"}, "[2]": {"assay": "Pharmacokinetics in rats (jugular vein cannula, plasma LC-MS)", "type": "in vivo, Rat", "details": "for Cmax / half-life / Tmax: rat, plasma, po", "protocol": "Rats (male or female, 200-225 g) were prepared with indwelling jugular vein cannula as described by Harms et al., Applied Physiol. 36:391-398 (1974), and allowed to recover overnight with free access to the standard vivarium chow and water. […] […] The blood samples were withdrawn at specific times, plasma was immediately separated and compound extracted with ethyl acetate. The samples were analyzed by LC-MS using 30-90% gradient of ACN in 50 mM ammonium acetate.\nThe pharmacokinetic parameters were calculated using WinNonlin software (Scientific Consulting Inc.). The bioavailability was calculated as AUCp.o./AUCi.v., where AUCp.o. and AUC i.v. are areas under the plasma concentration-time curve after oral and i.v. administration, respectively."}, "mouse GnRH receptors": {"target": "T1, mouse GnRH receptors (Mus musculus, UniProt Q01776)", "T1 construct": "expressed in transfected cells; host or cells: HEK 293 cells, stably transfected; membranes", "T1 sequence (Q01776 1-327)": "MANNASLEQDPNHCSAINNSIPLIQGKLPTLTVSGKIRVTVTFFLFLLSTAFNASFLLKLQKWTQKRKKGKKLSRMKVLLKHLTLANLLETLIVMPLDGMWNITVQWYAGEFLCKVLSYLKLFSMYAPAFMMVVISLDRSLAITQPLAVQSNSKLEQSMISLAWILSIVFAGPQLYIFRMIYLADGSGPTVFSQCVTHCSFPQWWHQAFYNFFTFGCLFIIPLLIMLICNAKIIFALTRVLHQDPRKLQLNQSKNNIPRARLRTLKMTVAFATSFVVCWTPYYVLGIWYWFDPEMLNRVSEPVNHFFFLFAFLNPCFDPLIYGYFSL", "assay": "Radioligand binding: inhibition of 125I-GnRH-A binding to mouse GnRH receptor membranes", "details": "HEK 293 cell membranes", "protocol": "HEK 293 cells stably transfected with mouse or human GnRH receptors as described above were grown in Dulbecco's high-glucose, modified Eagle's medium (DMEM) supplemented with 0.2% G418, 10% fetal bovine serum (FBS) and 100 U/mL penicillin/streptomycin. GH3 cells stably transfected with the rat GnRH receptor (GGH3) were provided by Dr. William Chin (Harvard Medical School, Boston, Mass.). These cells have been extensively characterized previously (Kaiser et al., 1997). The cells were grown in low glucose DMEM containing: 100U/mL penicillin/streptomycin, 0.6% G418 and 10% heat-inactivated FBS.\nHEK 293 cells containing mouse or human receptors, or rat pituitaries (Pel Freez Biologicals, Rogers, Ark.) were homogenized in buffer A containing: 50 mM Tris (pH 7.4), 0.32 M sucrose, 2 mM EGTA, 1 mM PMSF, 5 μg/ml aprotinen, 5 μg/ml Pepstatin A, and 1 μg/ml leupeptin. Homogenized cells were centrifuged at 4° C. at 20,000×g for 25 minutes, re-suspended in buffer A and re-centrifuged at 4° C. at 20,000×g for an additional 25 minutes. Total membrane protein was determined with a BCA kit (Pierce, Rockford, Ill.). Membranes were stored at −70° C. at a final membrane protein concentration of approximately 5 mg/ml.\nThe radioiodinated agonist analog of GnRH, [des-Gly^10,D-Ala^6]GnRH ethylamide (^125I-GnRH-A), was used as the radioligand. […] The reaction mixture was vortexed and incubated for 1 minute at room temperature. After one minute, the mixture was vortexed and allowed to incubate for an additional minute. 2 ml of 0.5 M acetic acid/1% BSA was added to the reaction tube and the mixture was added to a C18 Sep-Pak cartridge. The cartridge was washed with subsequent washes of 5 ml H2O and 5 ml 0.5 M acetic acid and then eluted with 5×1 ml of 60% CH3CN/40% 0.5 M acetic acid. The eluate was diluted with 3× volume of HPLC buffer A (0.1% TFA in H2O) and loaded onto a C18 column. The iodinated product was eluted over 20-25 min with a gradient of 25-100% CH3CN containing 0.1% TFA. The radioactive fractions (750 μl/fraction) were collected into clean polypropylene tubes containing 100 μl of 10% BSA. Fractions were assessed for biological activity by radioligand binding. Specific activity of the radioligand was approximately 2200 Ci/mmol.\nMembranes were diluted to 0.01-0.5 mg/ml (depending upon the species of receptor) with assay buffer containing 50 mM HEPES (pH 7.4), 1 mM EDTA, 2.5 mM MgCl2, and 0.1% BSA. Membranes (diluted to utilize similar receptor numbers between assays) were incubated with approximately 0.04-0.06 nM ^125I-GnRH-A in the presence or absence of competing agents (0.1-10,000 nM) in a total volume of 200 μl in 96-well polypropylene plates for 1 hour at room temperature. Assays were stopped by rapid filtration onto 96-well GF/C filters soaked in 0.1% polyethylenimine (PEI) utilizing a Packard 96-well cell harvester. Filters were washed three times with ice-cold PBS (50 mM NaPO4, 0.9% NaCl, 2 mM MgCl2, and 0.02% NaN3, pH 7.4). 35 μl of scintillation cocktail was added to each filter well and filters were counted on a Packard Topcount. Control dose-response curves were generated to GnRH (0.1 nM-100 nM) in each competition binding experiment. Ki values were calculated from IC50 values according to Cheng et al., Biochemical Pharmacol. 22: 3099-3108, 1973. [formula]"}, "[3]": {"details": "female rat, 10 mg/kg as 5 mg/ml solution in 10% DMSO, 10% cremophor, 80% saline (footnote 5)"}, "[4]": {"details": "female, 10 mg/kg, female rat, 10 mg/kg as 5 mg/ml solution in 10% DMSO, 10% cremophor, 80% saline (footnote 5), read-out: FR Cmax"}, "[5]": {"details": "female, 10 mg/kg, female rat, 10 mg/kg as 5 mg/ml solution in 10% DMSO, 10% cremophor, 80% saline (footnote 5), read-out: FR T1/2 hr (converted)"}, "[6]": {"details": "female, 10 mg/kg, female rat, 10 mg/kg as 5 mg/ml solution in 10% DMSO, 10% cremophor, 80% saline (footnote 5), read-out: FR Tmax hr"}}, "note": "Read-outs that look alike come from different tables or passages of the source.", "data": [{"smiles": "COc1nc(OC)c(NC(=O)c2ccc(Cc3cc4c(cc3C)C(C)(C)OC4(C)C)o2)c(OC)n1", "note": "[Example A1, 5-(1,1,3,3,6-Pentamethyl-1,3-dihydro-isobenzofuran-5-ylmethyl)-furan-2-carboxylic Acid (2,4,6-trimethoxy-pyrimidin-5-yl)-amide]", "values": [{"measurement": "Human % rem. 30′", "setting": "[1]", "value": 60, "unit": "%"}, {"measurement": "FR Fp.o.", "setting": "[2]; female rat, 10 mg/kg as 5 mg/ml solution in 10% DMSO 20% Labrasol, 70% saline (footnote 4)", "value": 37, "unit": "%^4"}, {"measurement": "Cmax", "setting": "[2]; female, 10 mg/kg, female rat, 10 mg/kg as 5 mg/ml solution in 10% DMSO 20% Labrasol, 70% saline (footnote 4), read-out: FR Cmax", "value": 1400, "unit": "nM"}, {"measurement": "half-life", "setting": "[2]; female, 10 mg/kg, female rat, 10 mg/kg as 5 mg/ml solution in 10% DMSO 20% Labrasol, 70% saline (footnote 4), read-out: FR T1/2 hr (converted)", "value": 5.1, "unit": "h"}, {"measurement": "Tmax", "setting": "[2]; female, 10 mg/kg, female rat, 10 mg/kg as 5 mg/ml solution in 10% DMSO 20% Labrasol, 70% saline (footnote 4), read-out: FR Tmax hr", "value": 1, "unit": "h"}, {"measurement": "MR Fp.o.", "setting": "[2]; male rat, 10 mg/kg as 5 mg/ml solution in 10% DMSO, 20% Labrasol, 70% saline (footnote 1)", "value": 6, "unit": "%^1"}, {"measurement": "Cmax", "setting": "[2]; male, 10 mg/kg, male rat, 10 mg/kg as 5 mg/ml solution in 10% DMSO, 20% Labrasol, 70% saline (footnote 1), read-out: MR Cmax", "value": 100, "unit": "nM"}, {"measurement": "half-life", "setting": "[2]; male, 10 mg/kg, male rat, 10 mg/kg as 5 mg/ml solution in 10% DMSO, 20% Labrasol, 70% saline (footnote 1), read-out: MR T1/2 hr (converted)", "value": 1.5, "unit": "h"}, {"measurement": "Tmax", "setting": "[2]; male, 10 mg/kg, male rat, 10 mg/kg as 5 mg/ml solution in 10% DMSO, 20% Labrasol, 70% saline (footnote 1), read-out: MR Tmax hr", "value": 1, "unit": "h"}, {"measurement": "Ki", "setting": "mouse GnRH receptors", "value": 4.2, "unit": "nM"}]}, {"smiles": "COc1nc(OCCO)nc(OC)c1NC(=O)c1ccc(Cc2cc3c(cc2C)C(C)(C)OC3(C)C)o1", "note": "[Example A3, 5-(1,1,3,3,6-Pentamethyl-1,3-dihydro-isobenzofuran-5-ylmethyl)-furan-2-carboxylic acid [2-(2-hydroxy-ethoxy)-4,6-dimethoxy-pyrimidin-5-yl]-amide]", "values": [{"measurement": "Human % rem. 30′", "setting": "[1]", "value": 83, "unit": "%"}, {"measurement": "FR Fp.o.", "setting": "[2]; [3]", "value": 60, "unit": "%^5"}, {"measurement": "Cmax", "setting": "[2]; [4]", "value": 4000, "unit": "nM"}, {"measurement": "half-life", "setting": "[2]; [5]", "value": 2.2, "unit": "h"}, {"measurement": "Tmax", "setting": "[2]; [6]", "value": 1, "unit": "h"}, {"measurement": "Cmax", "setting": "[2]; male, 20 mg/kg, male rat, 20 mg/kg as 10 mg/ml in Labrasol/H2O 1/1 (footnote 2), read-out: MR Cmax", "value": 3200, "unit": "nM"}, {"measurement": "Tmax", "setting": "[2]; male, 20 mg/kg, male rat, 20 mg/kg as 10 mg/ml in Labrasol/H2O 1/1 (footnote 2), read-out: MR Tmax hr", "value": 1, "unit": "h"}, {"measurement": "Cmax", "setting": "[2]; male, 50 mg/kg, male rat, 50 mg/kg in 50 mg/ml PG (footnote 2), read-out: Cmax", "value": 3700, "unit": "nM"}, {"measurement": "Tmax", "setting": "[2]; male, 50 mg/kg, male rat, 50 mg/kg in 50 mg/ml PG (footnote 2), read-out: Tmax", "value": 0.5, "unit": "h"}]}, {"smiles": "COc1nc(N(C)C)nc(OC)c1NC(=O)c1ccc(Cc2cc3c(cc2C)C(C)(C)CCC3(C)C)o1", "note": "[Example B2, 5-(3,5,5,8,8-Pentamethyl-5,6,7,8-tetrahydro-naphthalen-2-ylmethyl)-furan-2-carboxylic Acid (dimethylamino-dimethoxy-pyrimidin-5-yl)-amide]", "values": [{"measurement": "Human % rem. 30′", "setting": "[1]", "value": 40, "unit": "%"}, {"measurement": "FR Fp.o.", "setting": "[2]; female rat, 6 mg/kg as 3 mg/ml solution in 6% DMSO, 6% cremophor, 88% saline (footnote 6)", "value": 10, "unit": "%^6"}, {"measurement": "Cmax", "setting": "[2]; female, 6 mg/kg, female rat, 6 mg/kg as 3 mg/ml solution in 6% DMSO, 6% cremophor, 88% saline (footnote 6), read-out: FR Cmax", "value": 900, "unit": "nM"}, {"measurement": "half-life", "setting": "[2]; female, 6 mg/kg, female rat, 6 mg/kg as 3 mg/ml solution in 6% DMSO, 6% cremophor, 88% saline (footnote 6), read-out: FR T1/2 hr (converted)", "value": 5.7, "unit": "h"}, {"measurement": "Tmax", "setting": "[2]; female, 6 mg/kg, female rat, 6 mg/kg as 3 mg/ml solution in 6% DMSO, 6% cremophor, 88% saline (footnote 6), read-out: FR Tmax hr", "value": 1, "unit": "h"}, {"measurement": "Ki", "setting": "mouse GnRH receptors", "value": 3.4, "unit": "nM"}]}, {"smiles": "COc1nc(OC)c(NC(=O)c2ccc(Cc3cc4c(cc3C)C(C)(C)CCC4(C)C)o2)c(OC)n1", "note": "[Example C1, 5-(3,5,5,8,8-Pentamethyl-5,6,7,8-tetrahydro-naphthalen-2-ylmethyl)-furan-2-carboxylic Acid (2,4,6-trimethoxy-pyrimidin-5-yl)-amide]", "values": [{"measurement": "Human % rem. 30′", "setting": "[1]", "value": 35, "unit": "%"}, {"measurement": "FR Fp.o.", "setting": "[2]; [3]", "value": 56, "unit": "%^5"}, {"measurement": "Cmax", "setting": "[2]; [4]", "value": 800, "unit": "nM"}, {"measurement": "half-life", "setting": "[2]; [5]", "value": 2, "unit": "h"}, {"measurement": "Tmax", "setting": "[2]; [6]", "value": 2, "unit": "h"}, {"measurement": "Ki", "setting": "mouse GnRH receptors", "value": 0.42, "unit": "nM"}]}]}
